Laboratory results as given in patent US20130171162A1, “COMPOSITIONS AND METHODS FOR THE PREVENTION OF OXIDATIVE DEGRADATION OF PROTEINS” (priority 2008, published 2013).
Entries after “also recorded” stand apart in the source; their conditions may differ. Like-named read-outs stand apart in the source and are kept apart here.

How the values were obtained:
PTH [1] = test: Screening stabilizers for PTH oxidized by AAPH, H2O2 plus Fe(II), H2O2; rp-HPLC; format: physicochemical
PTH [2] = test: as above; format: physicochemical; conditions: for protection of PTH against oxidation: stress AAPH; for protection of PTH against oxidation / protection of Trp residue in PTH: 40° C., 6 hours; for protection of Trp residue in PTH: stress AAPH 1 mM, stabilizer 2 mg/mL
Protocol: The protein solution was subsequently stressed by the addition of 1 mM of AAPH, and incubated at 40° C. for 6 hours.
The experiments were carried on a Waters HPLC instrument using a C4 (Vydac, 214TP, 5μ, 2.1×250 mm). The solvent A was 0.1% trifluoracetic acid (TFA) in H2O and the solvent B was 0.08% TFA in acetonitrile. The samples were analyzed with a linear gradient from 20% B to 80% B at a flow rate of 0.2 mL/min in 45 min. The column temperature was set at 30° C.

PTH [3] = conditions: AAPH, FIG. 11
anti-VEGF antibody = conditions: for protection of anti-VEGF antibody against oxidation (basic peaks in IEC): AAPH, free Trp 2 or 10 mg/mL
[4] = Anti-VEGF antibody oxidation, IEC chromatogram; conditions: for oxidation / oxidative species in basic region of IEC: H2O2
[5] = stress H2O2 plus Fe(II) (Fenton reaction), 40° C., 6 hours

OC[C@H]1O[C@@](CO)(O[C@H]2O[C@H](CO)[C@@H](O)[C@H](O)[C@H]2O)[C@@H](O)[C@@H]1O [Sucrose, sucrose]
protection of PTH against oxidation (PTH [1]; [5]): less effective than mannitol

OC[C@@H](O)[C@@H](O)[C@H](O)[C@H](O)CO [mannitol, Mannitol]
protection of PTH against oxidation (PTH [1]; stress H2O2, 40° C., 6 hours): not protected by mannitol at all | protection of PTH against oxidation (PTH [1]; [5]): effective; also recorded: complete protection | protection of PTH against oxidation (PTH [2]): not protected by mannitol at all

Cc1ncc(CO)c(CO)c1O [pyridoxine]
protection of Trp residue in PTH (PTH [2]): excellent protection

N[C@@H](Cc1c[nH]c2ccccc12)C(=O)O [free tryptophan, L-Tryptophan]
Trp oxidation of PTH, relative quantification by EIC (PTH [3]): suppressed the Trp oxidation significantly | protection of anti-VEGF antibody against oxidation (basic peaks in IEC) (anti-VEGF antibody): excellent protection | protection of anti-VEGF antibody against oxidation (basic peaks in IEC) (anti-VEGF antibody; listed as Free Trp): effective in mitigating oxidation | protection of anti-VEGF antibody against oxidation (basic peaks in IEC) (anti-VEGF antibody; listed as free Trp): dropped to the baseline | protection of anti-VEGF antibody against oxidation (basic peaks in IEC) (anti-VEGF antibody; listed as tryptophan): effectively blocked the oxidative reaction | Met[O]-PTH peaks (PTH [1]; free Trp 2 mg/mL, Fenton reaction): much less so | protection of Trp residue in PTH (PTH [1]; stress Fenton reaction, stabilizer 2 mg/mL, 40° C., 6 hours): good protection | protection of PTH against oxidation (PTH [1]; stress H2O2, 40° C., 6 hours): no protection | Met[O]-PTH peaks (PTH [2]; free Trp 2 mg/mL, AAPH stress): prominent | protection of Trp residue in PTH (PTH [2]): good protection | protection of PTH against oxidation (PTH [2]): effective only against the oxidation by AAPH

anti-VEGF antibody: humanized anti-VEGF antibody fragment, indicated for the treatment of neovascular (wet) age-related macular degeneration
oxidation / peaks in basic region of IEC ([4]; AAPH): produced additional peaks in the basic region of IEC chromatogram | oxidation / oxidative species in basic region of IEC [4]: did not cause the anti-VEGF antibody oxidation | oxidation / oxidative species in basic region of IEC ([4]; listed as anti-VEGF): no oxidative species in basic region

CSCC[C@H](N)C(=O)O [free methionine, L-Methionine]
Met oxidation of PTH, relative quantification by EIC (PTH [3]): suppressed the Met oxidation significantly | effect on the oxidation of Trp in PTH (Trp[O] peak) (PTH [1]; free Met 2 mg/mL, FIG. 6): no effect | oxidation of Met residues in PTH (Met[O]-PTH peaks) (PTH [1]; free Met 2 mg/mL, FIG. 6): significantly reduced | protection of PTH against oxidation (PTH [1]; stress H2O2, 40° C., 6 hours): protected | protection of PTH against oxidation (PTH [1]; stress H2O2, 40° C., 6 hours, listed as Free Met): neutralized the effect of the oxidants H2O2 | protection of PTH against oxidation (PTH [1]; [5]): protected | protection of PTH against oxidation (PTH [1]; stress H2O2 plus Fe(II) (Fenton reaction), 40° C., 6 hours, listed as Free Met): neutralized the effect of the oxidants H2O2

Cc1c(C)c2c(c(C)c1O)CCC(C)(C(=O)O)O2 (stereo not shown) [trolox, 6-hydroxy-2,5,7,8-tetramethylchroman-2-carboxylic acid]
protection of Trp residue in PTH (PTH [2]): excellent protection

O=C([O-])CN(CCN(CC(=O)[O-])CC(=O)O)CC(=O)O.[Na+].[Na+] [EDTA, EDTA disodium]
effect on Trp 50 oxidation of anti-VEGF antibody (anti-VEGF antibody; EDTA added as stabilizer): inhibited; also recorded: improved stability
